Reference: patent US7612064B2, “Sulfopyrroles” (Takeda Pharmaceutical Company Limited, priority 2003, dated 2009)

How the values were obtained:
HeLa = test: MTS proliferation assay; type: cell-based, human; details: 72 h
How it was run: (§1)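 Cells were exposed for 72 h under culture conditions to test compounds at final concentrations of 10, 3, 1 and 0.3 μM, added in complete medium with at most 5% DMSO. MTS reagent was then added for a further 3 h, and absorbance was read at 492 nm.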

Jurkat = test: MTS proliferation assay; type: cell-based, human; details: 72 h
How it was run: as §1

Jily = test: MTS proliferation assay; type: cell-based; details: 72 h
How it was run: as §1

MRC5 = test: MTS proliferation assay; type: cell-based; details: MRC5, 72 h
How it was run: as §1

[1] = Hoechst 33342 nuclear staining; type: cell-based; details: for Hoechst 33342 nuclear staining score, H460: H460 cells; for Hoechst 33342 nuclear staining score, HeLa: HeLa cells; for Hoechst 33342 nuclear staining score, Jily: Jily cells; for Hoechst 33342 nuclear staining score, Jurkat: Jurkat cells; for Hoechst 33342 nuclear staining score, MRC5: MRC5 cells; for Hoechst 33342 nuclear staining score, PBLs: key: 0: no activity; 1: weak activity comprising less than 50% of the cells; 2: strong activity comprising more than 50% of the cells;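 for all read-outs here: apoptotic nuclei scored 0 none 1 weak under 50% of cells 2 strong over 50% of cells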
How it was run: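 Cells were plated in 96 well tissue culture plates in 80 μl complete medium, with 3-5*10^3 cells per well for adherent lines and 8-10*10^3 for suspension lines. Adherent cells spread for 24 h before treatment, while suspension cells were treated right after seeding. Compounds were added in 20 μl complete medium containing max 5% DMSO.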

SMILES	IC50 (Jily) [nM]	Hoechst 33342 nuclear staining score, H460 ([1]; conc 0.1)	Hoechst 33342 nuclear staining score, H460 ([1]; conc 0.3)	Hoechst 33342 nuclear staining score, H460 ([1]; conc 1)	Hoechst 33342 nuclear staining score, H460 ([1]; conc 3)	Hoechst 33342 nuclear staining score, HeLa ([1]; conc 0.1)	Hoechst 33342 nuclear staining score, HeLa ([1]; conc 0.3)	Hoechst 33342 nuclear staining score, HeLa ([1]; conc 1)	Hoechst 33342 nuclear staining score, HeLa ([1]; conc 3)	Hoechst 33342 nuclear staining score, Jily ([1]; conc 0.1)	Hoechst 33342 nuclear staining score, Jily ([1]; conc 0.3)	Hoechst 33342 nuclear staining score, Jily ([1]; conc 1)	Hoechst 33342 nuclear staining score, Jily ([1]; conc 3)	Hoechst 33342 nuclear staining score, Jurkat ([1]; conc 0.1)	Hoechst 33342 nuclear staining score, Jurkat ([1]; conc 0.3)	Hoechst 33342 nuclear staining score, Jurkat ([1]; conc 1)	Hoechst 33342 nuclear staining score, Jurkat ([1]; conc 3)	Hoechst 33342 nuclear staining score, MRC5 ([1]; conc 0.1)	Hoechst 33342 nuclear staining score, MRC5 ([1]; conc 0.3)	Hoechst 33342 nuclear staining score, MRC5 ([1]; conc 1)	other results
COc1cc(-c2cc(CNc3ccc(-c4nnn[nH]4)cc3)cn2S(=O)(=O)c2ccc(C)cc2)cc(OC)c1OC [Example 73]	> 1000	0	0	0	2 (strong activity comprising more than 50% of the cells)	0	0	0	0	0	0	0	1 (weak activity comprising less than 50% of the cells)	0	0	0	2 (strong activity comprising more than 50% of the cells)	0	0	0	IC50 (HeLa): > 1000 nM; IC50 (Jurkat): > 1000 nM; IC50 (MRC5): > 1000 nM; Hoechst 33342 nuclear staining score, MRC5 ([1]; conc 3): 0; Hoechst 33342 nuclear staining score, PBLs ([1]; conc 0.1): 0; Hoechst 33342 nuclear staining score, PBLs ([1]; conc 0.3): 0; Hoechst 33342 nuclear staining score, PBLs ([1]; conc 1): 0; Hoechst 33342 nuclear staining score, PBLs ([1]; conc 3): 0
COc1ccc(S(=O)(=O)n2cc(-c3cccnc3)cc2-c2cc(OC)c(OC)c(OC)c2)cc1 [Example 76, 1-p-Methoxyphenylsulfonyl-4-(3-pyridyl)-2-(3,4,5-trimethoxyphenyl)-pyrrole]	< 200	2 (strong activity comprising more than 50% of the cells)	2 (strong activity comprising more than 50% of the cells)	2 (strong activity comprising more than 50% of the cells)	2 (strong activity comprising more than 50% of the cells)	1 (weak activity comprising less than 50% of the cells)	2 (strong activity comprising more than 50% of the cells)	2 (strong activity comprising more than 50% of the cells)	2 (strong activity comprising more than 50% of the cells)	2 (strong activity comprising more than 50% of the cells)	2 (strong activity comprising more than 50% of the cells)	2 (strong activity comprising more than 50% of the cells)	2 (strong activity comprising more than 50% of the cells)	2 (strong activity comprising more than 50% of the cells)	2 (strong activity comprising more than 50% of the cells)	2 (strong activity comprising more than 50% of the cells)	2 (strong activity comprising more than 50% of the cells)	1 (weak activity comprising less than 50% of the cells)	1 (weak activity comprising less than 50% of the cells)	1 (weak activity comprising less than 50% of the cells)	IC50 (HeLa; Homo sapiens): < 200 nM; IC50 (Jurkat; Homo sapiens): < 200 nM; IC50 (MRC5; Homo sapiens): < 200 nM; Hoechst 33342 nuclear staining score, MRC5 ([1]; conc 3): 1 (weak activity comprising less than 50% of the cells); Hoechst 33342 nuclear staining score, PBLs ([1]; conc 0.1): 0; Hoechst 33342 nuclear staining score, PBLs ([1]; conc 0.3): 0; Hoechst 33342 nuclear staining score, PBLs ([1]; conc 1): 0; Hoechst 33342 nuclear staining score, PBLs ([1]; conc 3): 0
COc1cc(-c2cc(-c3cccnc3)cn2S(=O)(=O)c2ccccc2)cc(OC)c1OC [Example 79]	> 1000	0	0	0	0	0	0	0	0	0	0	0	0	0	0	0	0	0	0	0	IC50 (HeLa): > 1000 nM; IC50 (Jurkat): < 1000 nM; IC50 (MRC5): > 1000 nM; Hoechst 33342 nuclear staining score, MRC5 ([1]; conc 3): 0; Hoechst 33342 nuclear staining score, PBLs ([1]; conc 0.1): 0; Hoechst 33342 nuclear staining score, PBLs ([1]; conc 0.3): 0; Hoechst 33342 nuclear staining score, PBLs ([1]; conc 1): 0; Hoechst 33342 nuclear staining score, PBLs ([1]; conc 3): 0
COc1cc(-c2cc(-c3cccnc3)cn2S(=O)(=O)c2ccc(F)cc2)cc(OC)c1OC [Example 80]	> 1000	0	0	0	0	0	0	0	0	0	0	0	2 (strong activity comprising more than 50% of the cells)	0	0	0	2 (strong activity comprising more than 50% of the cells)	0	0	0	IC50 (HeLa): > 1000 nM; IC50 (Jurkat): > 1000 nM; IC50 (MRC5): > 1000 nM; Hoechst 33342 nuclear staining score, MRC5 ([1]; conc 3): 0; Hoechst 33342 nuclear staining score, PBLs ([1]; conc 0.1): 0; Hoechst 33342 nuclear staining score, PBLs ([1]; conc 0.3): 0; Hoechst 33342 nuclear staining score, PBLs ([1]; conc 1): 0; Hoechst 33342 nuclear staining score, PBLs ([1]; conc 3): 0
COc1cc(-c2cc(-c3cccnc3)cn2S(=O)(=O)c2ccc(Cl)cc2)cc(OC)c1OC [Example 81]	> 1000	0	0	0	2 (strong activity comprising more than 50% of the cells)	0	0	0	1 (weak activity comprising less than 50% of the cells)	0	0	0	1 (weak activity comprising less than 50% of the cells)	0	0	0	2 (strong activity comprising more than 50% of the cells)	0	0	0	IC50 (HeLa): > 1000 nM; IC50 (Jurkat): > 1000 nM; IC50 (MRC5): > 1000 nM; Hoechst 33342 nuclear staining score, MRC5 ([1]; conc 3): 0; Hoechst 33342 nuclear staining score, PBLs ([1]; conc 0.1): 0; Hoechst 33342 nuclear staining score, PBLs ([1]; conc 0.3): 0; Hoechst 33342 nuclear staining score, PBLs ([1]; conc 1): 0; Hoechst 33342 nuclear staining score, PBLs ([1]; conc 3): 0
